Reference: ChEMBL document CHEMBL2412951, “Resonance light scattering technique as a new tool to determine the binding mode of anticancer drug oridonin to DNA” (Eur J Med Chem, 2013)
Calls of active or inactive are those of the source. No cut-off for these calls is given here.

How the values were obtained:
Type in all cases: nucleic-acid assay
Details in all cases: Bos taurus
DNA [1] = assay: Binding affinity to calf thymus DNA by Stern-Volmer plot analysis
DNA [2] = assay: Binding affinity to calf thymus DNA at 10^-5 M by atomic force microscopic analysis
DNA [3] = assay: Binding affinity to calf thymus DNA at 5 X 10^-5 M by fluorescence polarization assay
DNA [4] = assay: Binding affinity to calf thymus DNA at 1 X 10^-5 M by spectrofluorimetric analysis
Calf thymus DNA [5] = assay: Binding affinity to calf thymus dsDNA at 1 X 10^-5 to 2 x 10^-5 M after 10 mins by UV/vis spectrophotometric analysis
Calf thymus DNA [6] = assay: Binding affinity to calf thymus double helix DNA at 90 uM by resonance light scattering analysis in presence of 0.005 to 0.2 M NaCl
DNA [7] = assay: Binding affinity to calf thymus DNA at 1 ug/ml at pH 2.5 by SEM analysis
DNA [8] = assay: Binding affinity to calf thymus DNA at 90 uM at pH 2 to 8.5 by resonance light scattering analysis
DNA [9] = assay: Binding affinity to calf thymus DNA at 10 to 160 uM by resonance light scattering analysis

KSV (DNA [1]): 1.79 ×10⁵ /M
Activity (DNA [2]): Active
Activity (DNA [3]): Active
Activity (DNA [4]): Active
Activity (Calf thymus DNA [5]): Active
Activity (Calf thymus DNA [6]): Active
Activity (DNA [7]): Active
Activity (DNA [8]): Active
Activity (DNA [9]): Active
Structure (SMILES): C=C1C(=O)[C@]23[C@H](O)[C@H]1CC[C@H]2[C@@]12CO[C@]3(O)[C@@H](O)[C@@H]1C(C)(C)CC[C@@H]2O
